# From paper PMC12723477, “Evaluating the Antifungal Potential of Autophagy-Related Protein 4 (ATG4) Inhibitors against Human Fungal Pathogens” (Journal of Microbiology and Biotechnology, 2025)
# What was measured:
# [1] = target: T1, CnAtg4T (truncated Cryptococcus neoformans ATG4) (Cryptococcus neoformans, UniProt J9VN57); assay: microscale thermophoresis with labelled purified CnAtg4T; also in vitro cleavage assay (IC50 […]) and BRET; format: binding
# T1 construct: gene CNAG_02662; CnAtg4T, 6xHis, truncated version excluding the disordered N-terminus, retaining the catalytic triad Cys563/Asp782/His784
# T1 sequence (J9VN57 entry or part of it): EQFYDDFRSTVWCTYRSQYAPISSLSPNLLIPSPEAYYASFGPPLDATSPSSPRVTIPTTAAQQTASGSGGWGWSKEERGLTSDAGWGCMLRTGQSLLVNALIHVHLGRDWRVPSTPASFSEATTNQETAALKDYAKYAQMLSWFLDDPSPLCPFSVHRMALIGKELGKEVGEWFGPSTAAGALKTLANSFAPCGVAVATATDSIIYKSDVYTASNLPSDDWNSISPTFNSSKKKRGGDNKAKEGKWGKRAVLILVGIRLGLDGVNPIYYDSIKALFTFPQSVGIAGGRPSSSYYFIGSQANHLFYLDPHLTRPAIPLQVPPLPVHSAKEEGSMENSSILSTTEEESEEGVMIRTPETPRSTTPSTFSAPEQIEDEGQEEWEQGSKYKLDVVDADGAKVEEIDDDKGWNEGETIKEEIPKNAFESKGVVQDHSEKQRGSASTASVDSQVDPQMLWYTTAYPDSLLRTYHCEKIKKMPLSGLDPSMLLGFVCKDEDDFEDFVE
# [2] = target: T2, AnAtg4 (Aspergillus niger ATG4) (Aspergillus niger, UniProt A2QY50); assay: in vitro cleavage of AnAtg8 sensor by purified AnAtg4 at […] compound (immunoblot); format: biochemical
# T2 construct: 6xHis-AnAtg4
# T2 sequence (A2QY50 1-404): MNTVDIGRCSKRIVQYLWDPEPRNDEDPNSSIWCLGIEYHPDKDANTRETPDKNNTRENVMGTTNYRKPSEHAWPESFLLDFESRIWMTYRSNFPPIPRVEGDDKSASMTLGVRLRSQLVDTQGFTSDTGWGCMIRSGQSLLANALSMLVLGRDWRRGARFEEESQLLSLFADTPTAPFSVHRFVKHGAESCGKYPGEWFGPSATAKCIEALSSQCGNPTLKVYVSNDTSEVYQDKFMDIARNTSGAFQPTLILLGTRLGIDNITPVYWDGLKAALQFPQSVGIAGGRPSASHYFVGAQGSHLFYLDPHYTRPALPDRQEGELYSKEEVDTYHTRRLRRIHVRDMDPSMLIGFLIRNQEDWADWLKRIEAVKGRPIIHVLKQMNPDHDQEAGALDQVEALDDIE
# [3] = target: T1, CnAtg4T (truncated Cryptococcus neoformans ATG4); assay: in vitro cleavage of CnAtg8 sensor by purified CnAtg4T (immunoblot) and BRET; format: biochemical
Compound,Kd [1] [µM],in vitro cleavage of AnAtg8 sensor by purified AnAtg4 at 10 μM compound (immunob) [2],IC50 [3] [µM]
"O=c1c2ccccc2[se]n1-c1ccccc1 [EB, Ebselen]",0.7 ± 0.32,the inhibitors exhibited comparable inhibitory effects on the ATG8 maturation catalyzed by AfAtg4 and AnAtg4 (Fig. 2D),
"O=C1c2ccccc2[Se](=O)N1c1ccccc1 (stereo not drawn) [EO, ebselen oxide]",,the inhibitors exhibited comparable inhibitory effects on the ATG8 maturation catalyzed by AfAtg4 and AnAtg4 (Fig. 2D),4.8
"Cc1ccc(-n2sc3ccccc3c2=O)cc1 [PT, 2-(4-methylphenyl)-1,2-benzisothiazol-3(2H)-one]",,the inhibitors exhibited comparable inhibitory effects on the ATG8 maturation catalyzed by AfAtg4 and AnAtg4 (Fig. 2D),8.44
